Reference: the OligoGym collection
HELM strings list units from the 5' end as sugar, base in round brackets, then linkage (d deoxyribose, r ribose, m 2'-O-methyl, p phosphodiester). Strings are as the collection lists them, not checked against the first reports. ss, as = sense and antisense strand; [s4r] = 4'-thioribose

Conditions: siRNA
Also: test system not given here.

Substance	target mRNA knockdown [%]
RNA1{r(C)p.r(G)p.r(U)p.r(A)p.r(C)p.r(G)p.r(C)p.r(G)p.r(G)p.r(A)p.r(A)p.r(U)p.r(A)p.m(C)p.m(U)p.m(U)p.m(C)p.m(G)p.m(A)p.r(T)p.r(T)}|RNA2{r(U)p.r(C)p.r(G)p.r(A)p.r(A)p.r(G)p.r(U)p.r(A)p.r(U)p.r(U)p.r(C)p.r(C)p.r(G)p.r(C)p.r(G)p.r(U)p.r(A)p.r(C)p.r(G)p.r(T)p.r(T)}$$$RNA1{StrandType:ss}|RNA2{StrandType:as}$	94.2
RNA1{r(C)p.r(G)p.r(U)p.r(A)p.r(C)p.r(G)p.r(C)p.r(G)p.r(G)p.r(A)p.r(A)p.r(U)p.r(A)p.r(C)p.r(U)p.[s4r](U)p.[s4r](C)p.[s4r](G)p.[s4r](A)p.r(T)p.r(T)}|RNA2{[s4r](U)p.[s4r](C)p.[s4r](G)p.[s4r](A)p.r(A)p.r(G)p.r(U)p.r(A)p.r(U)p.r(U)p.r(C)p.r(C)p.r(G)p.r(C)p.r(G)p.r(U)p.r(A)p.r(C)p.r(G)p.r(T)p.r(T)}$$$RNA1{StrandType:ss}|RNA2{StrandType:as}$	35.1
RNA1{r(C)p.r(G)p.r(U)p.r(A)p.r(C)p.r(G)p.r(C)p.r(G)p.r(G)p.r(A)p.r(A)p.r(U)p.r(A)p.r(C)p.r(U)p.[s4r](U)p.[s4r](C)p.[s4r](G)p.[s4r](A)p.r(T)p.r(T)}|RNA2{r(U)p.r(C)p.r(G)p.r(A)p.r(A)p.r(G)p.r(U)p.r(A)p.r(U)p.r(U)p.r(C)p.r(C)p.r(G)p.r(C)p.r(G)p.[s4r](U)p.[s4r](A)p.[s4r](C)p.[s4r](G)p.r(T)p.r(T)}$$$RNA1{StrandType:ss}|RNA2{StrandType:as}$	83.4
RNA1{r(C)p.r(G)p.r(U)p.r(A)p.r(C)p.r(G)p.r(C)p.r(G)p.r(G)p.r(A)p.r(A)p.r(U)p.r(A)p.r(C)p.r(U)p.[s4r](U)p.[s4r](C)p.[s4r](G)p.[s4r](A)p.r(T)p.r(T)}|RNA2{r(U)p.r(C)p.r(G)p.r(A)p.r(A)p.r(G)p.r(U)p.r(A)p.r(U)p.r(U)p.r(C)p.r(C)p.r(G)p.r(C)p.r(G)p.r(U)p.r(A)p.r(C)p.r(G)p.r(T)p.r(T)}$$$RNA1{StrandType:ss}|RNA2{StrandType:as}$	94.3
RNA1{r(C)p.r(G)p.r(U)p.r(A)p.r(C)p.r(G)p.r(C)p.r(G)p.r(G)p.r(A)p.r(A)p.r(U)p.r(A)p.r(C)p.r(U)p.r(U)p.r(C)p.[s4r](G)p.[s4r](A)p.r(T)p.r(T)}|RNA2{[s4r](U)p.[s4r](C)p.r(G)p.r(A)p.r(A)p.r(G)p.r(U)p.r(A)p.r(U)p.r(U)p.r(C)p.r(C)p.r(G)p.r(C)p.r(G)p.r(U)p.r(A)p.r(C)p.r(G)p.r(T)p.r(T)}$$$RNA1{StrandType:ss}|RNA2{StrandType:as}$	91.2
RNA1{r(C)p.r(G)p.r(U)p.r(A)p.r(C)p.r(G)p.r(C)p.r(G)p.r(G)p.r(A)p.r(A)p.r(U)p.r(A)p.r(C)p.r(U)p.r(U)p.r(C)p.[s4r](G)p.[s4r](A)p.r(T)p.r(T)}|RNA2{r(U)p.r(C)p.r(G)p.r(A)p.r(A)p.r(G)p.r(U)p.r(A)p.r(U)p.r(U)p.r(C)p.r(C)p.r(G)p.r(C)p.r(G)p.r(U)p.r(A)p.r(C)p.r(G)p.r(T)p.r(T)}$$$RNA1{StrandType:ss}|RNA2{StrandType:as}$	95.4
RNA1{r(C)p.r(G)p.r(U)p.r(A)p.r(C)p.r(G)p.r(C)p.r(G)p.r(G)p.r(A)p.r(A)p.r(U)p.r(A)p.r(C)p.r(U)p.r(U)p.r(C)p.r(G)p.r(A)p.r(T)p.r(T)}|RNA2{[s4r](U)p.[s4r](C)p.[s4r](G)p.[s4r](A)p.[s4r](A)p.[s4r](G)p.[s4r](U)p.[s4r](A)p.[s4r](U)p.[s4r](U)p.[s4r](C)p.[s4r](C)p.[s4r](G)p.[s4r](C)p.[s4r](G)p.[s4r](U)p.[s4r](A)p.[s4r](C)p.[s4r](G)p.r(T)p.r(T)}$$$RNA1{StrandType:ss}|RNA2{StrandType:as}$	16.6
RNA1{r(C)p.r(G)p.r(U)p.r(A)p.r(C)p.r(G)p.r(C)p.r(G)p.r(G)p.r(A)p.r(A)p.r(U)p.r(A)p.r(C)p.r(U)p.r(U)p.r(C)p.r(G)p.r(A)p.r(T)p.r(T)}|RNA2{[s4r](U)p.[s4r](C)p.[s4r](G)p.[s4r](A)p.[s4r](A)p.[s4r](G)p.r(U)p.r(A)p.r(U)p.r(U)p.r(C)p.r(C)p.r(G)p.[s4r](C)p.[s4r](G)p.[s4r](U)p.[s4r](A)p.[s4r](C)p.[s4r](G)p.r(T)p.r(T)}$$$RNA1{StrandType:ss}|RNA2{StrandType:as}$	22.8
RNA1{r(C)p.r(G)p.r(U)p.r(A)p.r(C)p.r(G)p.r(C)p.r(G)p.r(G)p.r(A)p.r(A)p.r(U)p.r(A)p.r(C)p.r(U)p.r(U)p.r(C)p.r(G)p.r(A)p.r(T)p.r(T)}|RNA2{[s4r](U)p.[s4r](C)p.[s4r](G)p.[s4r](A)p.[s4r](A)p.[s4r](G)p.r(U)p.r(A)p.r(U)p.r(U)p.r(C)p.r(C)p.r(G)p.r(C)p.r(G)p.r(U)p.r(A)p.r(C)p.r(G)p.r(T)p.r(T)}$$$RNA1{StrandType:ss}|RNA2{StrandType:as}$	70.9
RNA1{r(C)p.r(G)p.r(U)p.r(A)p.r(C)p.r(G)p.r(C)p.r(G)p.r(G)p.r(A)p.r(A)p.r(U)p.r(A)p.r(C)p.r(U)p.r(U)p.r(C)p.r(G)p.r(A)p.r(T)p.r(T)}|RNA2{[s4r](U)p.[s4r](C)p.[s4r](G)p.[s4r](A)p.r(A)p.r(G)p.r(U)p.r(A)p.r(U)p.r(U)p.r(C)p.r(C)p.r(G)p.r(C)p.r(G)p.[s4r](U)p.[s4r](A)p.[s4r](C)p.[s4r](G)p.r(T)p.r(T)}$$$RNA1{StrandType:ss}|RNA2{StrandType:as}$	20
RNA1{r(C)p.r(G)p.r(U)p.r(A)p.r(C)p.r(G)p.r(C)p.r(G)p.r(G)p.r(A)p.r(A)p.r(U)p.r(A)p.r(C)p.r(U)p.r(U)p.r(C)p.r(G)p.r(A)p.r(T)p.r(T)}|RNA2{[s4r](U)p.[s4r](C)p.[s4r](G)p.[s4r](A)p.r(A)p.r(G)p.r(U)p.r(A)p.r(U)p.r(U)p.r(C)p.r(C)p.r(G)p.r(C)p.r(G)p.r(U)p.r(A)p.r(C)p.r(G)p.r(T)p.r(T)}$$$RNA1{StrandType:ss}|RNA2{StrandType:as}$	76.7
RNA1{r(C)p.r(G)p.r(U)p.r(A)p.r(C)p.r(G)p.r(C)p.r(G)p.r(G)p.r(A)p.r(A)p.r(U)p.r(A)p.r(C)p.r(U)p.r(U)p.r(C)p.r(G)p.r(A)p.r(T)p.r(T)}|RNA2{[s4r](U)p.[s4r](C)p.r(G)p.r(A)p.r(A)p.r(G)p.[s4r](U)p.r(A)p.[s4r](U)p.[s4r](U)p.[s4r](C)p.[s4r](C)p.r(G)p.[s4r](C)p.r(G)p.[s4r](U)p.r(A)p.[s4r](C)p.r(G)p.r(T)p.r(T)}$$$RNA1{StrandType:ss}|RNA2{StrandType:as}$	27.5
RNA1{r(C)p.r(G)p.r(U)p.r(A)p.r(C)p.r(G)p.r(C)p.r(G)p.r(G)p.r(A)p.r(A)p.r(U)p.r(A)p.r(C)p.r(U)p.r(U)p.r(C)p.r(G)p.r(A)p.r(T)p.r(T)}|RNA2{[s4r](U)p.[s4r](C)p.r(G)p.r(A)p.r(A)p.r(G)p.r(U)p.r(A)p.r(U)p.r(U)p.r(C)p.r(C)p.r(G)p.r(C)p.r(G)p.r(U)p.r(A)p.[s4r](C)p.[s4r](G)p.r(T)p.r(T)}$$$RNA1{StrandType:ss}|RNA2{StrandType:as}$	88.8
RNA1{r(C)p.r(G)p.r(U)p.r(A)p.r(C)p.r(G)p.r(C)p.r(G)p.r(G)p.r(A)p.r(A)p.r(U)p.r(A)p.r(C)p.r(U)p.r(U)p.r(C)p.r(G)p.r(A)p.r(T)p.r(T)}|RNA2{[s4r](U)p.[s4r](C)p.r(G)p.r(A)p.r(A)p.r(G)p.r(U)p.r(A)p.r(U)p.r(U)p.r(C)p.r(C)p.r(G)p.r(C)p.r(G)p.r(U)p.r(A)p.r(C)p.r(G)p.r(T)p.r(T)}$$$RNA1{StrandType:ss}|RNA2{StrandType:as}$	95
RNA1{r(C)p.r(G)p.r(U)p.r(A)p.r(C)p.r(G)p.r(C)p.r(G)p.r(G)p.r(A)p.r(A)p.r(U)p.r(A)p.r(C)p.r(U)p.r(U)p.r(C)p.r(G)p.r(A)p.r(T)p.r(T)}|RNA2{[s4r](U)p.r(C)p.r(G)p.r(A)p.r(A)p.r(G)p.[s4r](U)p.r(A)p.[s4r](U)p.[s4r](U)p.r(C)p.r(C)p.r(G)p.r(C)p.r(G)p.[s4r](U)p.r(A)p.r(C)p.r(G)p.r(T)p.r(T)}$$$RNA1{StrandType:ss}|RNA2{StrandType:as}$	79.5
RNA1{r(C)p.r(G)p.r(U)p.r(A)p.r(C)p.r(G)p.r(C)p.r(G)p.r(G)p.r(A)p.r(A)p.r(U)p.r(A)p.r(C)p.r(U)p.r(U)p.r(C)p.r(G)p.r(A)p.r(T)p.r(T)}|RNA2{m(U)p.m(C)p.m(G)p.m(A)p.m(A)p.m(G)p.r(U)p.r(A)p.r(U)p.r(U)p.r(C)p.r(C)p.r(G)p.r(C)p.r(G)p.r(U)p.r(A)p.r(C)p.r(G)p.r(T)p.r(T)}$$$RNA1{StrandType:ss}|RNA2{StrandType:as}$	10.3
RNA1{r(C)p.r(G)p.r(U)p.r(A)p.r(C)p.r(G)p.r(C)p.r(G)p.r(G)p.r(A)p.r(A)p.r(U)p.r(A)p.r(C)p.r(U)p.r(U)p.r(C)p.r(G)p.r(A)p.r(T)p.r(T)}|RNA2{r(U)p.[s4r](C)p.r(G)p.r(A)p.r(A)p.r(G)p.r(U)p.r(A)p.r(U)p.r(U)p.[s4r](C)p.[s4r](C)p.r(G)p.[s4r](C)p.r(G)p.r(U)p.r(A)p.[s4r](C)p.r(G)p.r(T)p.r(T)}$$$RNA1{StrandType:ss}|RNA2{StrandType:as}$	68.5
RNA1{r(C)p.r(G)p.r(U)p.r(A)p.r(C)p.r(G)p.r(C)p.r(G)p.r(G)p.r(A)p.r(A)p.r(U)p.r(A)p.r(C)p.r(U)p.r(U)p.r(C)p.r(G)p.r(A)p.r(T)p.r(T)}|RNA2{r(U)p.r(C)p.r(G)p.r(A)p.r(A)p.r(G)p.[s4r](U)p.[s4r](A)p.[s4r](U)p.[s4r](U)p.[s4r](C)p.[s4r](C)p.[s4r](G)p.r(C)p.r(G)p.r(U)p.r(A)p.r(C)p.r(G)p.r(T)p.r(T)}$$$RNA1{StrandType:ss}|RNA2{StrandType:as}$	36.5
RNA1{r(C)p.r(G)p.r(U)p.r(A)p.r(C)p.r(G)p.r(C)p.r(G)p.r(G)p.r(A)p.r(A)p.r(U)p.r(A)p.r(C)p.r(U)p.r(U)p.r(C)p.r(G)p.r(A)p.r(T)p.r(T)}|RNA2{r(U)p.r(C)p.r(G)p.r(A)p.r(A)p.r(G)p.r(U)p.r(A)p.r(U)p.r(U)p.r(C)p.r(C)p.r(G)p.[s4r](C)p.[s4r](G)p.[s4r](U)p.[s4r](A)p.[s4r](C)p.[s4r](G)p.r(T)p.r(T)}$$$RNA1{StrandType:ss}|RNA2{StrandType:as}$	72.2
